Source: PMC6949936, “Probing the Interactions of Sulfur-Containing Histidine Compounds with Human Gamma-Glutamyl Transpeptidase” (Marine Drugs, 2019)

Target: T1, Gamma-glutamyl transpeptidase (eqGGT) (Equus caballus, UniProt F7DXY0)
T1 construct: GGT from equine kidney (Sigma-Aldrich)
Assay: time-dependent irreversible inactivation, pre-incubation with […] DON then dilution
Assay type: biochemical

T1 sequence (F7DXY0 75-452): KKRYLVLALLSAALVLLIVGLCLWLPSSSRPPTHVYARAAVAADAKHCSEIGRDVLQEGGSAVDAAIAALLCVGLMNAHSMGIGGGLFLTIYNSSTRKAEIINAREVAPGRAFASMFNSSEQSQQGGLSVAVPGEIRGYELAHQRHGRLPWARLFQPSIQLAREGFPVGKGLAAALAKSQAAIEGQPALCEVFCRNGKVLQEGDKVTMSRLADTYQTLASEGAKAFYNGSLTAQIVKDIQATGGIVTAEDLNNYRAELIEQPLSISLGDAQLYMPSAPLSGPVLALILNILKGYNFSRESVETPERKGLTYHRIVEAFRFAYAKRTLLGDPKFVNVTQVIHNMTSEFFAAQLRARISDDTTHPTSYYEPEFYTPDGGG
T1 sequence (F7DXY0 453-641): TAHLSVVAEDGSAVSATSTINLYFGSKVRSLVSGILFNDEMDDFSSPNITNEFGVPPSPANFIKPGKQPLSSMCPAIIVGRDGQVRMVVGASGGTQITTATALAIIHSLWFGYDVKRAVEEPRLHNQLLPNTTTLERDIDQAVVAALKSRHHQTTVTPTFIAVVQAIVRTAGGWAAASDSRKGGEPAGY

In the case of `[N-]=[N+]=CC(=O)CC[C@H](N)C(=O)O` [DON, 6-diazo-5-oxo-L-norleucine], the “time-dependent irreversible inactivation, pre-incubation with 400 μM DON then di” value is reported as “DON acts as an irreversible inhibitor, and then as an inactivator of GGT, because, after dilution, the activity was not restored”.
